Here are results for one compound from paper PMC8252455, “Prediction of a clinically effective dose of THY1773, a novel V 1B receptor antagonist, based on preclinical data” (Biopharmaceutics & Drug Disposition, 2021).

The term Log P denotes a log measure of how a compound divides between an organic and an aqueous phase. A low value points to a more hydrophilic compound. A word on the pKa: it is the negative logarithm of the acid dissociation constant. A higher pKa goes with a group that holds its proton tightly. Broadly, the EC50 is the concentration giving half of the maximal effect. For orientation: Ki means the equilibrium dissociation constant of an inhibitor or competing ligand from its target.

The nature of series [1]: Physicochemical properties (Log P, pKa). The conditions noted are these: experimental data. The text has this: TABLE 2 Human PBPK/RO model input parameters for THY1773 | column: Value
The nature of series [2]: Plasma protein binding by equilibrium dialysis, rat plasma. The series is classed as in vitro ADME. The conditions noted are these: 300 ng/ml. On the procedure: The plasma protein binding of THY1773 in rats, dogs, and humans was evaluated by an equilibrium dialysis method using a 96‐well equilibrium dialysis plate (HTDialysis) with a 12–14 kDa cut‐off dialysis membrane. THY1773 was dissolved in dimethyl sulfoxide, and spiked with rat, dog, or human plasma at a final concentration of 300 ng/ml. An aliquot of plasma containing THY1773 and sodium phosphate buffer (pH 7.4) was added into the donor side and the receiver side of each designated well, respectively. After incubation for 6 h at a rate of 50 oscillation/min at 37°C in an air incubator, an aliquot of each side of each well was collected and mixed with acetonitrile/methanol (9:1, vol/vol) containing the IS. Each sample was centrifuged at 3974 × g for 10 min at 4°C to remove the precipitated proteins, and the resultant supernatants were subjected to LC‐MS/MS analysis. The protein binding (%) was calculated using the Boudinot formula (Boudinot & Jusko, 1984).
(In general: Equilibrium dialysis compares concentrations on both sides of a semipermeable membrane.)

Series [3] can be described thus: CLint in human liver microsomes (reaction phenotyping, no inhibitor). The format is in vitro ADME. Conditions: HLMs. On the procedure: Reaction phenotyping using cDNA expressed recombinant human CYP isoforms, CYP1A2, CYP2B6, CYP2C8, CYP2C9, CYP2C19, CYP2D6, and CYP3A4, was conducted. Each recombinant enzyme (100 pmol/ml) in potassium phosphate buffer (pH 7.4; 100 mmol/L for CYP3A4, 50 mmol/L for the others) was preincubated with [^3H]THY1773 (10 μmol/L) at 37°C for 5 min. The reactions were initiated by the addition of NADPH‐generating system (1 mmol/L NADP^+, 5 mmol/L G‐6‐P, 1 unit/ml G‐6‐PDH, and 5 mmol/L MgCl2) and incubated for 0 or 60 min. The reactions were terminated by the addition of an equal volume of acetonitrile/methanol (9:1, vol/vol), followed by centrifugation at 1650 × g for 10 min at 4°C. An aliquot of the supernatant was subjected to an Agilent 1200 HPLC system (Agilent Technologies, Inc.) equipped with a radiochemical flow detector (Radiomatic 625TR; Perkin Elmer, Inc.), and formation of metabolites was evaluated. […] The CLint was calculated by the method as described previously under metabolic stability in animal liver microsomes, and the fraction metabolized (fm) was calculated by Equation (1): (1) fm=1−(CLint, with inh/CLint) where CLint is intrinsic clearance without specific inhibitor and CLint,with inh is intrinsic clearance in the presence of specific inhibitor.
For orientation: Microsomes from liver hold many membrane-bound enzymes, among them those of drug oxidation.

Series [4] concerns the target anterior pituitary V1B receptor. The series is described as follows: Rat V1B RO study using a tritium labeled V1B receptor ligand. The conditions noted are these: in vivo; estimated from RO study of Kamiya et al., 2020.
The target in a further series is T1, human V1B receptor (Homo sapiens, UniProt P47901).
T1 construct: expressed in transfected cells; host or cells: 1321-N1 cells (membranes)
T1 sequence (P47901 1-424): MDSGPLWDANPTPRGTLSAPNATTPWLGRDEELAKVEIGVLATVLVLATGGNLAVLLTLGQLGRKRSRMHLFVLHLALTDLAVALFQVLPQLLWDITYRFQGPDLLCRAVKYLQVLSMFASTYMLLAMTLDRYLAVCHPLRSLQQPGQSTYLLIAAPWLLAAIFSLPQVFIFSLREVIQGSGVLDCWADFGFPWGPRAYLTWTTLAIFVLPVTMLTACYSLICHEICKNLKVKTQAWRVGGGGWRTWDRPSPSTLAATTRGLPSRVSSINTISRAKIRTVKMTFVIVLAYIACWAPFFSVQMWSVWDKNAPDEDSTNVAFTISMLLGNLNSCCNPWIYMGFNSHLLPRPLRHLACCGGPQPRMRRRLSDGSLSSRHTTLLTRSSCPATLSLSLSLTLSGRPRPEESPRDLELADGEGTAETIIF
The series is described as follows: In vitro [3H]AVP binding assay, membranes of 1321-N1 cells expressing human V1B receptor. The conditions noted are these: 1321-N1 cell membranes, read-out: EC50 of RO model (Ki value for human V1B receptor binding inhibition).

Series [5] is described as follows: Metabolic stability in dog liver microsomes. The conditions noted are these: 1 μmol/L. The series is classed as in vitro ADME. On the procedure: The oxidative metabolism of THY1773 was evaluated in rat and dog liver microsomes. THY1773 (1 μmol/L) was incubated with pooled liver microsomes (0.25 mg protein/ml) in sodium–potassium phosphate buffer (pH 7.4) consisting of 100 mmol/L sodium phosphate, 100 mmol/L potassium chloride, 2.5 mmol/L magnesium chloride (MgCl2), 1.5 mmol/L glucose‐6‐phosphate (G‐6‐P), and 0.18 units/ml G‐6‐P dehydrogenase (G‐6‐PDH). The reactions were initiated by the addition of β‐nicotinamide–adenine dinucleotide phosphate, oxidized form (NADP^+, 0.16 mmol/L), and incubated for 10, 20, 30, 40, 50, and 60 min. […] The intrinsic clearance (CLint) was calculated by the substrate depletion method described by Naritomi et al. (2001).
Since the CLliver was underestimated in rats and dogs from CLint in liver microsomes, the ratio of observed in vivo CLint and predicted CLint was calculated as the empirical scaling factor (ESF) for the extrapolation of CLliver from in vitro data. […] The total plasma clearance (CLtotal) was calculated by Equation (4): (4) CLtotal=QH×fu×(CLint/fu,mic)/QH+(fu/Rb)×(CLint/fu,mic)+CLrenal where QH is hepatic blood flow, fu is the free fraction in plasma, fu,mic is the fraction unbound in HLMs, Rb is blood‐to‐plasma ratio, and CLrenal is renal clearance. The fu,mic value was calculated using the Simcyp population based simulator (Version 16 R1; Simcyp Ltd.). […]

Structures are written as SMILES.

Take `CC(C)NC(=O)Cn1c(-c2cccc(Cl)c2)nn(-c2ccc(CCN3CCOCC3)cc2)c1=O` [THY1773]: the log partition coefficient (Log P) in series [1] was 3.17. Besides, in series [1] (monoprotic base), the pKa came to 6.85. This compound returned a Plasma protein binding in series [2] of 89.2%. This compound returned a CLint in series [3] (500 nmol/L, no inhibitor) of 11.2 ± 0.898 µL/min/mg. The “CLint (PBPK input, Model 1)” value in series [3] (experimental data) is listed as 11.2 (Model 1) μl/min/mg protein. For the same compound, in series [4], the EC50 was 4.8 nM. Further, the Ki at human V1B receptor is 3.51 nM. The “CLint in liver microsomes” value in series [5] came to 32.2 μL/min/mg protein.
